# Assay results as given in publication PMC9319510, “The Multistage Antimalarial Compound Calxinin Perturbates P. falciparum Ca^2+ Homeostasis by Targeting a Unique Ion Channel” (Pharmaceutics, 2022).
# System: T1, voltage T-type Ca2+ channel (α1H; Cav3.1)
# T1 construct: gene CACNA1H; α1H cDNA in pcDNA3, expressed in HEK 293 cells; Cav3.1 would be α1G (CACNA1G)
# Assay: whole-cell patch clamp
# Assay type: cell-based, Homo sapiens
# Settings: HEK-293 cells stably expressing α1H; 5 mM CaCl2 external, pH 7.4; Vh -90 mV; positive control, data not shown
smiles,measurement,value
CN1CCN(c2ncc(-c3cc(Cl)cc(Cl)c3Cl)c(N)n2)CC1 [Sipatrigine],IC50,~30 µM
